From publication PMC7461115, “Contribution of KCNQ and TREK Channels to the Resting Membrane Potential in Sympathetic Neurons at Physiological Temperature” (International Journal of Molecular Sciences, 2020)

Columns and labels:
[1] = molecular target: T1, TREK-2 (expressed in HEK293) (Mus musculus, UniProt Q8BUW1); assay: patch clamp of transfected HEK293 cells, inhibition of riluzole-evoked current
T1 construct: gene Kcnk10
T1 sequence (Q8BUW1 1-535): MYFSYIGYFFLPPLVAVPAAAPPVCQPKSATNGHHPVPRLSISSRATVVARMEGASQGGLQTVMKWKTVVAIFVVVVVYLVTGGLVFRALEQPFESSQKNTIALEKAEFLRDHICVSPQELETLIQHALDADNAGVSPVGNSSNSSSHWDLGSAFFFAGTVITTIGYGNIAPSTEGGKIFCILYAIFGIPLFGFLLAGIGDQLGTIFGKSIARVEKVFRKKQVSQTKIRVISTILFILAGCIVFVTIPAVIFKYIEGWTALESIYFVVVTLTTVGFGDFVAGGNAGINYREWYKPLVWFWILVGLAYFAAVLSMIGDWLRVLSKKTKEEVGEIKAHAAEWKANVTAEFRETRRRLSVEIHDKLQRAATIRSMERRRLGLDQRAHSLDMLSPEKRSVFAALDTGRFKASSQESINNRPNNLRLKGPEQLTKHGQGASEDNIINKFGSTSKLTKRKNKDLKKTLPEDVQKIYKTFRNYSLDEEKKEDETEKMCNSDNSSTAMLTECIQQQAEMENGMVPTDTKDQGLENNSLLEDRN

[2] = molecular target: T2, TREK-2 (native riluzole-activated current IRIL in mouse SCG neurons) (Mus musculus, UniProt Q8BUW1); assay: perforated-patch whole-cell voltage clamp, inhibition of riluzole-activated current; format: cell-based; conditions: riluzole 300 µM activator, TEA 15 mM, TTX 0.5 µM, CsCl 1 mM, -30 mV, room temperature, Hill coefficient 0.78
T2 construct: gene Kcnk10; TREK-1 and TRAAK are also expressed at lower level

SMILES	inhibition at 1 µM ([1]; HEK293, read-out: % inhibition at 1 μM) [%]	IC50 [2] [nM]	inhibition at 0.3 µM ([1]; HEK293, read-out: % inhibition at 300 nM) [%]
O=C1c2ccccc2C(Cc2ccncc2)(Cc2ccncc2)c2ccccc21 [XE991]	73.8 ± 1.93		
O=C1N(c2ccccc2)c2ccccc2C1(Cc1ccncc1)Cc1ccncc1 [linopirdine]		310 ± 60	65.5 ± 5.93
